The results in this text go back to patent US20250059182A1, “SOS1 INHIBITORS” (Mirati Therapeutics, Inc., priority 2021, published 2025).

In test [1] the test system is pERK in MKN1 cells. The test is described as follows: pERK inhibition, In-Cell Western (LI-COR Odyssey), MKN1 cells. It is filed as cell-based. The following applies: Homo sapiens. As for the experimental part: This Example illustrates that exemplary compounds of the present invention prevent KRas-mediated GTP nucleotide exchange mediated by SOS1 to inhibit KRas activity thereby inhibiting the generation of the downstream effector pERK.
MKN1 cells (15,000/w) or H358 (30,000/w) were seeded in a black clear flat bottom 96-well cell culture plate (Corning, #3904) and incubated at 37° C. overnight. Assay day 1, cells were dosed with compounds of Formula (I) with a 10 μm starting concentration and serially diluted 3× for a total of 9 concentrations. The cells were incubated for approximately 0.5-1 hour with the compounds solubilized in DMSO at 37° C. Cells were immediately fixed by adding 50 μL of 4% formaldehyde to all wells in a fume hood and the plates were incubated for 20 minutes at room temperature. The formaldehyde was discarded from the plates and 150 μL of ice-cold methanol was added to permeabilize the cells for 10 minutes at −20° C. The methanol was discarded from each of the plates and any liquid remaining in the plate by tapping the plate against paper towels. Cells were then blocked with 150 μL of Odyssey blocking buffer (LI-COR Biosciences #927-50010) using 0.05% Tween for 1 hour at room temperature on a shaker. The blocking buffer was discarded and 50 μL of primary antibodies pERK (cell signaling Technology #9101L; Rabbit, 1:500) and GapDH (Millipore #MAB34; Mouse, 1:5000) diluted in Odyssey blocking buffer was added. The plates were incubated overnight at 4° C. on a shaker.
On Assay day 2, the primary antibody solution was removed. Each plate was washed 3× times with 150 μL of 1×PBST (PBS+0.1% Tween 20) and incubated with 50 μL of secondary antibodies: Anti-Rabbit (LI-COR Biosciences #926-32211) and Anti-Mouse (LI-COR Biosciences #68070) at 1:800 dilution in Odyssey blocking buffer with Tween at room temperature on a shaker for 2 hours (protected from light). The secondary antibody solution as removed and each plate was washed with PBST 3× times. Any liquid remaining was discarded and the plate was imaged using the Licor Odyssey machine according to the manufacturer's instruction, using a set focus length at 3 mm and both 800 nm and 700 nm filters. The GAPDH normalized scan values for each well were divided by the average of vehicle wells to get the % of pERK inhibition. The IC50 values were then calculated with the Graph pad Prism software.

The target in test [2] is T1, recombinant human SOS1 polypeptide (amino acids 560-1049) (Homo sapiens, UniProt Q07889).
T1 construct: corresponding to amino acids 560-1049, expressed in E. Coli; made in house; host or cells: E. coli
T1 sequence (Q07889 560-1049): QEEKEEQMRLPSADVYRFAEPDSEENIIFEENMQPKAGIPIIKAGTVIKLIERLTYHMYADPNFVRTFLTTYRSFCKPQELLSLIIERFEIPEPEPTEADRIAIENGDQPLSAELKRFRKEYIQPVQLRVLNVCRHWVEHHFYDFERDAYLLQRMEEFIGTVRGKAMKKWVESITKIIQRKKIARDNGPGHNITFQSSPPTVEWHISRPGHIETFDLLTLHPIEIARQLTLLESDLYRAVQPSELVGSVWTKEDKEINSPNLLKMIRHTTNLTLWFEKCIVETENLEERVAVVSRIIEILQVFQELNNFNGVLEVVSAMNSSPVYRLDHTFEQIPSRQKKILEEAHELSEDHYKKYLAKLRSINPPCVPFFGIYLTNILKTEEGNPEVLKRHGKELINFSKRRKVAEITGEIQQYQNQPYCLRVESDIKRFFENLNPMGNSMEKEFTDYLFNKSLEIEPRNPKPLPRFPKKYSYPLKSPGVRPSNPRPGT
In words: HTRF displacement assay: inhibition of labeled tracer binding to SOS1. To be noted: Table A, Morrison equation for competitive binding. Background: In TR-FRET formats the signal depends on donor and acceptor labels being close together.

Setting [3] is: MKN-1, Table B, MKN1 or H358 cells (table does not say which), 0.5-1 hour incubation, read-out: IC50 (nM), pERK inhibition.
Setting [4] is: MKN-1, Table B1, MKN1 or H358 cells (table does not say which), 0.5-1 hour incubation, read-out: IC50 (nM), pERK inhibition.
Setting [5] is: MKN-1, read-out: IC50 (nM), pERK inhibition.

Each structure is given as a SMILES string. Counter-ions that a name gives are not always drawn. Like-named read-outs stand apart in the source and are kept apart here. Some results are limits rather than exact numbers.

The IC50 is the point on the concentration scale where inhibition reaches its midpoint. For the compound `COc1cc2c(C)nnc(N[C@H](C)c3cccc(C#N)c3C)c2cc1O[C@H]1CCOC1` [Example 6-15, 3-((R)-1-((6-methoxy-4-methyl-7-(((S)-tetrahydrofuran-3-yl)oxy)phthalazin-1-yl)amino)ethyl)-2-methylbenzonitrile], the half-maximal inhibitory concentration (IC50) in test [1] (setting [3]) came out at 165 nM.

Turning to `Cc1c(C#N)cccc1[C@@H](C)Nc1nnc(C)c2cc(F)c(N3CCOCC3)cc12` [Example 4-12, (R)-3-(1-((6-fluoro-4-methyl-7-morpholinophthalazin-1-yl)amino)ethyl)-2-methylbenzonitrile], the half-inhibitory concentration (IC50) in test [1] (setting [3]) was 120 nM.

Regarding `Cc1c(C#N)cccc1[C@@H](C)Nc1nnc(C)c2cnc(N3CCC34CN(CCCF)C4)cc12` [Example P-228, (R)-3-(1-((7-(6-(3-fluoropropyl)-1,6-diazaspiro[3.3]heptan-1-yl)-4-methylpyrido[3,4-d]pyridazin-1-yl)amino)ethyl)-2-methylbenzonitrile], the half-maximal inhibitory concentration (IC50) in test [1] (setting [4]) was 68.4 nM.

With `Cc1nnc(N[C@H](C)c2cccc(C(F)(F)F)c2F)c2cc(N(C)[C@@H]3CCN(C)C3)ncc12` [Example 1-29, N^1-((R)-1-(2-fluoro-3-(trifluoromethyl)phenyl)ethyl)-N^7,4-dimethyl-N^7-((R)-1-methylpyrrolidin-3-yl)pyrido[3,4-d]pyridazine-1,7-diamine], the half-inhibitory concentration (IC50) in test [1] (setting [3]) was 41 nM.

In the case of `Cc1nnc(N[C@H](C)c2ccc(C#N)cc2F)c2cc(N3CCN(C)CC3)ncc12` [Example 1-98, (R)-3-fluoro-4-(1-((4-methyl-7-(4-methylpiperazin-1-yl)pyrido[3,4-d]pyridazin-1-yl)amino)ethyl)benzonitrile], in test [1] (setting [3]), the IC50 amounted to 186 nM.

Take `Cc1nnc(N[C@H](C)c2cccc(C(F)(F)F)c2F)c2cc(N(C)[C@H]3CCN(C)C3)ncc12` [Example 1-28, N^1-((R)-1-(2-fluoro-3-(trifluoromethyl)phenyl)ethyl)-N^7,4-dimethyl-N^7-((S)-1-methylpyrrolidin-3-yl)pyrido[3,4-d]pyridazine-1,7-diamine]: in test [1] (setting [3]), the IC50 worked out at 52.3 nM.

One may read the Ki as the dissociation constant of the complex between target and ligand, obtained from inhibition or displacement. For `Cc1nnc(N[C@H](C)c2cccc(C(F)F)c2F)c2cc(N3CCN(C)CC3)c(C#N)cc12` [Example 6-22, (R)-1-((1-(3-(difluoromethyl)-2-fluorophenyl)ethyl)amino)-4-methyl-7-(4-methylpiperazin-1-yl)phthalazine-6-carbonitrile], the Ki in test [2] was 1.49 nM.

As to `Cc1c(C#N)cccc1[C@@H](C)Nc1nnc(C)c2cnc(N3CC4(COC4)C3)cc12` [Example 1-80, (R)-2-methyl-3-(1-((4-methyl-7-(2-oxa-6-azaspiro[3.3]heptan-6-yl)pyrido[3,4-d]pyridazin-1-yl)amino)ethyl)benzonitrile], the IC50 in test [1] (setting [3]) is 60.9 nM.

`Cc1c(Br)cccc1[C@@H](C)Nc1nnc(C)c2cnc(N3CCOCC3)cc12` [Example P-213, (R)-N-(1-(3-bromo-2-methylphenyl)ethyl)-4-methyl-7-morpholinopyrido[3,4-d]pyridazin-1-amine formic acid salt]: the IC50 in test [1] (setting [5]) amounted to 114 nM.

For the compound `Cc1c(C#N)cccc1[C@@H](C)Nc1nnc(C)c2cnc(N3C[C@H](C)N(C)[C@@H](C)C3)cc12` [Example 1-68, 2-methyl-3-((R)-1-((4-methyl-7-((3S,5S)-3,4,5-trimethylpiperazin-1-yl)pyrido[3,4-d]pyridazin-1-yl)amino)ethyl)benzonitrile], the IC50 in test [1] (setting [3]) worked out at 61 nM.

Consider `Cc1c(C#N)cccc1[C@@H](C)Nc1nnc(C)c2cnc(N3C[C@@H](C)N(C)[C@@H](C)C3)cc12` [Example 1-67, 2-methyl-3-((R)-1-((4-methyl-7-((3R,5S)-3,4,5-trimethylpiperazin-1-yl)pyrido[3,4-d]pyridazin-1-yl)amino)ethyl)benzonitrile], for which, in test [1] (setting [3]), the IC50 is 121 nM.

As to `COc1cc2cnnc(N[C@H](C)c3cccc4ccccc34)c2cc1OC` [Example P-210, (R)-6,7-dimethoxy-N-(1-(naphthalen-1-yl)ethyl)phthalazin-1-amine formic acid salt], the half-maximal inhibitory concentration (IC50) in test [1] (setting [5]) is above 10000 nM.

Turning to `Cc1c(C#N)cccc1[C@@H](C)Nc1nnc(C)c2cnc(N[C@H]3CCN(C)C3)cc12` [Example 1-30, 2-methyl-3-((R)-1-((4-methyl-7-(((S)-1-methylpyrrolidin-3-yl)amino)pyrido[3,4-d]pyridazin-1-yl)amino)ethyl)benzonitrile], the IC50 in test [1] (setting [3]) came to 250 nM.

As for `Cc1c(C#N)cccc1[C@@H](C)Nc1nnc(C)c2cnc(N3CCc4nn(C)cc4C3)cc12` [Example P-51, (R)-2-methyl-3-(1-((4-methyl-7-(2-methyl-2,4,6,7-tetrahydro-5H-pyrazolo[4,3-c]pyridin-5-yl)pyrido[3,4-d]pyridazin-1-yl)amino)ethyl)benzonitrile], the IC50 in test [1] (setting [4]) is 120 nM.

Consider `Cc1c(C#N)cccc1[C@@H](C)Nc1nnc(C)c2cnc(N(C)[C@@H]3CCN(C(C)C)C3)cc12` [Example 1-78, 3-((R)-1-((7-(((R)-1-isopropylpyrrolidin-3-yl)(methyl)amino)-4-methylpyrido[3,4-d]pyridazin-1-yl)amino)ethyl)-2-methylbenzonitrile], for which, in test [1] (setting [3]), the half-inhibitory concentration (IC50) was determined as 53.9 nM.

On to `Cc1c(C#N)cccc1[C@@H](C)Nc1nnc(C)c2cc(F)c(N3CC(C)(N(C)C)C3)cc12` [Example 4-8, (R)-3-(1-((7-(3-(dimethylamino)-3-methylazetidin-1-yl)-6-fluoro-4-methylphthalazin-1-yl)amino)ethyl)-2-methylbenzonitrile], for which the IC50 in test [1] (setting [3]) was found to be 109 nM.

In the case of `Cc1c(C#N)cccc1[C@@H](C)Nc1nnc(C)c2c(C)nc(N3CCN(C)CC3)cc12` [Example P-189, (R)-3-(1-((4,5-dimethyl-7-(4-methylpiperazin-1-yl)pyrido[3,4-d]pyridazin-1-yl)amino)ethyl)-2-methylbenzonitrile], the IC50 in test [1] (setting [4]) turned out to be 57 nM.

Turning to `Cc1c(C#N)cccc1[C@@H](C)Nc1nnc(C)c2cc(Cl)c(N3CCOCC3)cc12` [7-2, (R)-3-(1-((6-chloro-4-methyl-7-morpholinophthalazin-1-yl)amino)ethyl)-2-methylbenzonitrile], the IC50 in test [1] (setting [3]) was found to be 286 nM.

For the compound `Cc1c(C#N)cccc1[C@@H](C)Nc1nnc(C)c2cnc(N[C@@H]3CCN(C)C3)cc12` [Example 1-31, 2-methyl-3-((R)-1-((4-methyl-7-(((R)-1-methylpyrrolidin-3-yl)amino)pyrido[3,4-d]pyridazin-1-yl)amino)ethyl)benzonitrile], the IC50 in test [1] (setting [3]) stood at 128 nM.

Take `Cc1c(C#N)cccc1[C@@H](C)Nc1nnc(C)c2cnc(N(C)[C@H]3CCN(C(C)C)C3)cc12` [Example 1-79, 3-((R)-1-((7-(((S)-1-isopropylpyrrolidin-3-yl)(methyl)amino)-4-methylpyrido[3,4-d]pyridazin-1-yl)amino)ethyl)-2-methylbenzonitrile]: in test [1] (setting [3]), the IC50 is 75.2 nM.

As for `Cc1c(C#N)cccc1[C@@H](C)Nc1nnc(C)c2cnc(N3CCN(C)C(=O)C3)cc12` [Example 1-45, (R)-2-methyl-3-(1-((4-methyl-7-(4-methyl-3-oxopiperazin-1-yl)pyrido[3,4-d]pyridazin-1-yl)amino)ethyl)benzonitrile], the concentration for half-maximal inhibition (IC50) in test [1] (setting [3]) stood at 99 nM.

In the case of `Cc1c(C#N)cccc1[C@@H](C)Nc1nnc(C)c2cnc(N3C[C@@H]4C[C@H]3CN4)cc12` [Example 1-75, 3-((R)-1-((7-((1S,4S)-2,5-diazabicyclo[2.2.1]heptan-2-yl)-4-methylpyrido[3,4-d]pyridazin-1-yl)amino)ethyl)-2-methylbenzonitrile], in test [1] (setting [3]), the half-maximal inhibitory concentration (IC50) turned out to be 590 nM.
